Results reported in ChEMBL document CHEMBL5050829, “Inhibitors of cytochrome P450 family 7 subfamily B member 1 (CYP7B1) for use in treating diseases” (2021).
Calls of active or inactive are those of the source. The calls are words filed in the database; no cut-off is given here.

How the values were obtained:
Mus musculus [1] = species: Mus musculus; experiment: Inhibition of Cyp7b1 in cigarette smoke extract (CSE)-stimulated mouse airways at 1 uM assessed as impairment of activated B-cell migration towards supernatant culture relative to control; format: tissue-based; settings: Respiratory airway
Mus musculus [2] = species: Mus musculus; experiment: Inhibition of Cyp7b1 in cigarette smoke extract (CSE)-stimulated mouse airways at 1 uM assessed as reduction in Ch25h mRNA expression relative to control; format: tissue-based; settings: Respiratory airway
Mus musculus [3] = experiment: Protection against cigarette smoke-induced COPD in C57BL/6 mouse exposed with cigarette smoke for 4 months assessed as reduction in emphysema in lungs at 80 mg/kg, ip administered 3 times per week from 2 to 4 months; format: functional, organism-based; settings: Lung
Mus musculus [4] = experiment: Protection against cigarette smoke-induced COPD in C57BL/6 mouse exposed with cigarette smoke for 6 months assessed as reduction in emphysema in lungs at 80 mg/kg, ip administered 3 times per week from 2 to 4 months; format: functional, organism-based; settings: Lung
Mus musculus [5] = experiment: Protection against cigarette smoke-induced COPD in C57BL/6 mouse exposed with cigarette smoke for 6 months assessed as reduction in lung volume at 80 mg/kg, ip administered 3 times per week from 2 to 4 months; format: functional, organism-based
Mus musculus [6] = experiment: Protection against cigarette smoke-induced COPD in C57BL/6 mouse exposed with cigarette smoke for 4 months assessed as reduction in iBALT formation in lungs at 80 mg/kg, ip administered 3 times per week from 2 to 4 months; format: functional, organism-based; settings: Lung
B cell [7] = experiment: Inhibition of Cyp7b1 in cigarette smoke extract (CSE) and LPS-stimulated mouse B cells at 0.3 to 1 uM assessed as reduction in TNF-alpha mRNA expression and measured by RT-PCR analysis relative to control; format: cell-based; settings: dose 0.3-1 µM
Mus musculus [8] = experiment: Protection against cigarette smoke-induced COPD in C57BL/6 mouse exposed with cigarette smoke for 6 months assessed as reduction in iBALT formation in lungs at 80 mg/kg, ip administered 3 times per week from 2 to 4 months; format: functional, organism-based; settings: Lung
B cell [9] = experiment: Inhibition of Cyp7b1 in cigarette smoke extract (CSE) and LPS-stimulated mouse B cells at 0.3 to 1 uM assessed as reduction in Ch25h mRNA expression and measured by RT-PCR analysis relative to control; format: cell-based; settings: dose 0.3-1 µM
Mus musculus [10] = experiment: Protection against cigarette smoke-induced COPD in C57BL/6 mouse exposed with cigarette smoke for 4 months assessed as reduction in lung volume at 80 mg/kg, ip administered 3 times per week from 2 to 4 months; format: functional, organism-based
B cell [11] = experiment: Inhibition of Cyp7b1 in cigarette smoke extract (CSE) and LPS-stimulated mouse B cells at 0.3 to 1 uM assessed as reduction in cyp7b1 mRNA expression and measured by RT-PCR analysis relative to control; format: cell-based; settings: dose 0.3-1 µM
Mus musculus [12] = experiment: Protection against cigarette smoke-induced COPD in C57BL/6 mouse exposed with cigarette smoke for 6 months assessed as reduction in macrophage count in BALF at 80 mg/kg, ip administered 3 times per week from 2 to 4 months; format: functional, organism-based
Mus musculus [13] = experiment: Protection against cigarette smoke-induced COPD in C57BL/6 mouse exposed with cigarette smoke for 4 months assessed as reduction in lymphocyte count in BALF at 80 mg/kg, ip administered 3 times per week from 2 to 4 months; format: functional, organism-based
Mus musculus [14] = experiment: Protection against cigarette smoke-induced COPD in C57BL/6 mouse exposed with cigarette smoke for 4 months assessed as reduction in macrophage count in BALF at 80 mg/kg, ip administered 3 times per week from 2 to 4 months; format: functional, organism-based
Mus musculus [15] = species: Mus musculus; experiment: Inhibition of Cyp7b1 in cigarette smoke extract (CSE)-stimulated mouse airways at 1 uM assessed as reduction in cyp7b1 mRNA expression relative to control; format: tissue-based; settings: Respiratory airway
Mus musculus [16] = species: Mus musculus; experiment: Inhibition of Cyp7b1 in cigarette smoke extract (CSE)-stimulated mouse airways at 0.1 to 1 uM assessed as impairment of activated B-cell migration towards supernatant culture relative to control; format: tissue-based; settings: Respiratory airway, dose 0.1-1 µM

Structure (SMILES): CC(C)(C(=O)c1cccnc1)c1cccnc1
- inhibition (Mus musculus [1]): Active

Structure (SMILES): Clc1ccc(COC(Cn2ccnc2)c2ccc(Cl)cc2Cl)c(Cl)c1 (stereo not drawn)
- inhibition (Mus musculus [1]): Active

Structure (SMILES): Clc1ccccc1C(c1ccccc1)(c1ccccc1)n1ccnc1
- inhibition (Mus musculus [2]): inactive
- Activity (Mus musculus [3]): Active
- Activity (Mus musculus [4]): Active
- inhibition (Mus musculus [1]): Active
- Activity (Mus musculus [5]): Active
- Activity (Mus musculus [6]): Active
- inhibition (B cell [7]): Active
- Activity (Mus musculus [8]): Active
- inhibition (B cell [9]): Active
- Activity (Mus musculus [10]): Active
- inhibition (B cell [11]): Active
- Activity (Mus musculus [12]): Active
- Activity (Mus musculus [13]): Active
- Activity (Mus musculus [14]): Active
- inhibition (Mus musculus [15]): Active

Structure (SMILES): CC(C)c1nc(CN(C)C(=O)N[C@H](C(=O)N[C@@H](Cc2ccccc2)C[C@H](O)[C@H](Cc2ccccc2)NC(=O)OCc2cncs2)C(C)C)cs1
- inhibition (Mus musculus [16]): Active
